Measured values taken from PMC6468590, “Novel Flavivirus Antiviral That Targets the Host Nuclear Transport Importin α/β1 Heterodimer” (Cells, 2019).

Target: T1, IMPα2 (importin α, IMPα) (Mus musculus, UniProt P52293)
T1 construct: gene Kpna2; full-length His6-IMPα2 and IMPαΔIBB (residues 67–529, ARM repeat domain)
Assay: multi-wavelength analytical ultracentrifugation (co-sedimentation at […] nm), SYPRO orange thermal shift and CD; the IC50 is AlphaScreen inhibition of IMPα binding to IMPβ[…]

IC50: 10.3 ± 0.8 µM
Structure (SMILES): O=C1Nc2ccc(I)cc2/C1=C/c1cc(Br)c(O)c(Br)c1 [GW5074]
